Values joined by “and” are separate entries in the source; they are usually repeats but may differ in a detail not shown here. Equal values may be shown once. Where a name gives a salt, the structure may show the parent alone.
Tests used:
[1] = system: citrus greening
Method: The treatment delivered 150 mg OTC-HCl per season.
The treatment delivered 600 mg OTC-HCl per season.

[2] = system: citrus greening; settings: average across six replications; harvested December 21
From the text: (§1) Treatments included the application of oxytetracycline (OTC) using Invaio's proprietary injection system into the scion of each tree. The trial was designed as a randomized complete blocking which three treatments were applied to each of four trees within each of six replications at three different treatment dates. […] The OTC is a commercial oxytetracycline product. One injection of OTC was made in each tree for the first two injections timings and two OTC injections were made per tree at the third application timing.
Fruit yield. Fruit yield was determined for trees of each treatment as the total weight (lbs) of fruit picked (harvested) from each tree on December 21. Fruit yield was recorded as an average by replication and as an average across all six replications (Table 3).

[3] = average of six replications; fruit collected December 7
From the text: as §1
Fruit was collected from trees of the OTC treatment by replication on December 7 and bulked according to treatment and replication to create individual fruit samples for OTC residue analysis. Similarly, fruit was collected from trees from two replications of nontreated treatments and bulked by replication to create individual fruit samples for OTC residue analysis.

[4] = system: citrus greening; test: Example 1 field trial: fruit drop
From the text: (§2) Field trial design. […] Treatments included the application of oxytetracycline (OTC) using Invaio's proprietary injection system into the scion of each tree. The trial was designed as a randomized complete blocking which three treatments were applied to each of four trees within each of six replications at three different treatment dates. […] The OTC is a commercial oxytetracycline product. One injection of OTC was made in each tree for the first two injections timings and two OTC injections were made per tree at the third application timing.
Fruit drop. Fruit drop was determined for trees of each treatment as the number of fruit on the ground underneath each tree at each of six counting dates, approximately 2 weeks apart, beginning on October 13 and finishing prior to fruit harvest on December 21. Counted fruit were removed from the ground after each counting date. Fruit drop was recorded as an average by date and as an average across all six dates (Table 4).

[5] = system: citrus greening; test: Example 1 field trial: BRIX analysis of fruit; settings: fruit collected December 8
From the text: as §2
BRIX analysis. Fruit was collected from trees of each treatment by replication on December 8 and bulked according to treatment and replication to create individual fruit samples for BRIX analysis.

Row | Compound | yield increase over water ([1]; 150 mg OTC-HCl per season (FIG. 30)) | yield increase over the nontreated controls ([1]; 600 mg OTC-HCl per season (FIG. 31)) [%] | Fruit yield (lbs per tree), treatment average [2] | OTC residue in fruit, treatment average [3] | Fruit drop (number), treatment average ([4]; average across replications and dates) [number] | Fruit drop (number), rep average across dates ([4]; average of six counting dates, by replication) | Fruit drop (number) ([4]; counting date 8-Dec, by replication) | Fruit drop (number) ([4]; counting date 9-Nov, by replication) | Fruit drop (number) ([4]; counting date 13-Oct, by replication) | Fruit drop (number) ([4]; counting date 21-Dec, by replication) | Fruit drop (number) ([4]; counting date 24-Nov, by replication) | Fruit drop (number) ([4]; counting date 28-Oct, by replication) | Brix, treatment average ([5]; average of six replications) | Brix ([5]; by replication, OTC 1.58 mg/mL, 60 ml scion injections)
1 | CN(C)[C@@H]1C(O)=C(C(N)=O)C(=O)[C@@]2(O)C(O)=C3C(=O)c4c(O)cccc4[C@@](C)(O)[C@H]3[C@H](O)[C@@H]12 [OTC-HCl, oxytetracycline hydrochloride] | about 74% | ~53 |  |  |  |  |  |  |  |  |  |  |  | 
2 | CN(C)[C@@H]1C(O)=C(C(N)=O)C(=O)[C@@]2(O)C(O)=C3C(=O)c4c(O)cccc4[C@@](C)(O)[C@H]3[C@H](O)[C@@H]12 [OTC, oxytetracycline] |  |  | 48.7 lbs per tree and 50.4 lbs per tree | 0.007 ppm and 0.006616 ppm | 17.8 | 20.9 number and 20.5 number and 16.0 number and 17.1 number and 14.5 number and 18.0 number | 19.0 number and 13.3 number and 14.0 number and 12.3 number and 15.0 number and 22.8 number | 31.5 number and 20.5 number and 23.8 number and 18.5 number and 22.0 number and 28.0 number | 11.5 number and 8.8 number and 9.0 number and 7.3 number and 14.5 number and 14.3 number | 17.5 number and 20.0 number and 16.5 number and 16.8 number and 12.0 number and 15.0 number | 26.8 number and 18.3 number and 20.8 number and 21.8 number and 28.0 number | 14.5 number and 18.8 number and 18.3 number and 16.3 number and 19.8 number and 15.0 number | 8.0 | 8.1 and 8.4 and 8 and 7.6

From patent publication US20250374923A1 (priority 2022, published 2025)
